Assay: Drug interaction and stability with β-limit dextrin in solution
Assay type: physicochemical
Description: There are many potential applications with respect to dispersing and solubilising insoluble compounds. […] Drug interaction and stability with β-limit dextrin in solution

[1] = drug 1% in β-limit dextrin (5%)
[2] = drug 1% in β-limit dextrin (10%)

| Drug interaction and stability in solution (drug 1% in Water) | Drug interaction and stability in solution [1] | Drug interaction and stability in solution [2] | SMILES |
| --- | --- | --- | --- |
| Dissolved | Dissolved | Dissolved | O=C1O[C@H]([C@@H](O)CO)C(O)=C1O [Ascorbic acid] |
| Not suspended | Suspended | Suspended | CC(=O)Oc1ccccc1C(=O)O [Aspirin] |
| Not suspended | Suspended | Suspended | Cn1c(=O)c2[nH]cnc2n(C)c1=O [Theophylline] |

Source: patent publication US8142812B2, “Chemical carrier based on a beta-limit dextrin” (Glycologic Limited, priority 2002, dated 2012)
